Measurements taken from article PMC8546421, “Molecular modelling of the FOXO4-TP53 interaction to design senolytic peptides for the elimination of senescent cancer cells” (EBioMedicine, 2021).
Where no end group is shown, it is not given here.

Key:
[1] = tested on: senescent cells in the liver; assay: Systemic delivery to aged mice, liver SA-β-gal; type: in vivo, mouse; conditions: aged mice (82 weeks), 3 mg ES2 via tail vein weekly for three weeks, n=5, p=0.03
Protocol: Senescent and dividing cells or tissue sections were fixed with 4% formaldehyde. The cells were washed with PBS twice before staining with X-gal solution [1 mg/mL 5-bromo-4-chloro-3inolyl-β-D-galactoside (Boehringer Manneheim #745-740) in N,N-dimethylformamide, 5 mM potassium ferricyanide crystalline (#P-8131), 5 mM potassium […] (#P-3289), 2 mM magnesium chloride, and 1x PBS, pH 6.0. Cells or tissue sections were incubated at 37°C for 24 hours. After staining, cells were washed with PBS before being counted and imaged on the Leica Dmi8 microscope.
Mice were aged between 3-8 months and 20-30 g in weight and were housed in specific pathogen free cages. Animals were randomly distributed among treatment groups by assigning mice within the same cage to different treatment regimens. To minimise confounders, mouse treatment order was randomised within each cage. Male and female mice were distributed between all treatment groups since the chemicals used were directly injected and are not metabolized. Researchers were not blinded to the group allocation, but all attempts were made to analyse the data without knowing treatment conditions. […] Mice were then monitored daily and allowed to age until a humane endpoint was reached according to our IACUC protocol, which in this case was tumours of 2 cm in size. […]

[2] = tested on: A375, B16F10, HCT116, MCF7, IMR90 and MCF10A cells; assay: ES2 viability (MTS) in cell line panel, senescent vs dividing; type: cell-based
Protocol: Cell lines were treated with chemotherapy, doxorubicin (Sigma, Cat. No. 2252) to induce senescence (200 nM for HCT116, 100 nM for B16-F10 and MCF7, 50 nM for SW480 and DLD-1, 40 nM for A375-Luc/iRFP and MCF10a). MCF7 cells were treated with CDK4/6 inhibitor, palbociclib (Selleck Chemicals: S1116) to induce senescence (5 µM). A375 cells were treated with Braf inhibitor, Dabrafenib (Selleck Chemicals: S2807), to induce senescence (10 µM). Peptide efficacy experiments were performed by seeding 10,000 – 20,000 cells in a 96-well plate. The cells were given doxorubicin twice to make the cells senescent. After removal of doxorubicin, the plate was treated with varying concentrations of peptide. The peptide was replenished daily for two days. Cellular proliferation was quantified using the Promega CellTiter 96™ AQueous One Solution Cell Proliferation Assay (MTS) after 2 hours according to the manufacturer's protocol (Promega, G3581). To control for the charge of ES2, ProteoJuice (Millipore Sigma, 71281) was used to deliver ES2 using the manufacturers protocol, except 50 µL of 2 mM ES2 was mixed with 25 µL of ProteoJuice. Varying concentrations of the mixture were administered to A375 cells along with a control of only ProteoJuice.

## PRKGGRRRRAWGRRRRRRRRRRRRRRAPRKRLTLA [ES2]
[1]
  number of senescent cells in the liver (SA-β-gal activity): reduced the number of senescent cells in the liver by half
[2]; A375 with Dabrafenib, MCF7 with Palbociclib
  concentration of ES2 resulting in cell death, doxorubicin vs other pro-senescence agents: no difference in concentration of ES2 resulting in cell death
[2]; doxorubicin-induced senescence, all cell lines
  IC50 in dividing cells relative to senescent cells: at least 3 times
